What was measured:
[1] = biological target: wild type PRC2 (wtPRC2) complex (Homo sapiens (Human), UniProt O75530); assay: EED LC-MS assay; format: biochemical; conditions: read-out: (b) IC50 EED LC-MS Qualified
Protocol: A 6 μL solution of 3 μM of the peptide substrate H3K27Me0 (histone H3[21-44]-biotin) in reaction buffer was added to initiate each reaction. […] ELISA (H3K27 Methylation) Assay

EED (1-441)-His protein = EED (1-441)-His protein (Homo sapiens (Human), UniProt O75530); assay: EED-H3K27Me3 peptide competition binding assay by AlphaScreen; conditions: read-out: (a) IC50 EED Alphascreen binding Qualified
Chain of EED (1-441)-His protein (O75530 whole entry): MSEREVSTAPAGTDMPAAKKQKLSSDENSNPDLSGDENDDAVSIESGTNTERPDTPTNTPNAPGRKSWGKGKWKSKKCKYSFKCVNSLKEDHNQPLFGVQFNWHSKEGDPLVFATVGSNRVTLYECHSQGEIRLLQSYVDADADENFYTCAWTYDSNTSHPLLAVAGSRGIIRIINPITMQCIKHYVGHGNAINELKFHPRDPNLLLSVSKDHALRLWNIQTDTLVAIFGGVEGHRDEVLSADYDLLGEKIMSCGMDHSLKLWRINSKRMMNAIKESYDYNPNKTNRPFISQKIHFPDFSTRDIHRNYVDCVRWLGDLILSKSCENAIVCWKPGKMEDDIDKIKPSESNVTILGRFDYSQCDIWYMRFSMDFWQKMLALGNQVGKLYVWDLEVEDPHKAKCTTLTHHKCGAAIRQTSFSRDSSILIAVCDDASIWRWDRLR
Description: EED-H3K27Me3 peptide competition binding assay by AlphaScreen (α-screen)

Chain of wild type PRC2 (wtPRC2) complex (O75530 whole entry): as above
Chain of wild type PRC2 (wtPRC2) complex (Q15910 whole entry partner): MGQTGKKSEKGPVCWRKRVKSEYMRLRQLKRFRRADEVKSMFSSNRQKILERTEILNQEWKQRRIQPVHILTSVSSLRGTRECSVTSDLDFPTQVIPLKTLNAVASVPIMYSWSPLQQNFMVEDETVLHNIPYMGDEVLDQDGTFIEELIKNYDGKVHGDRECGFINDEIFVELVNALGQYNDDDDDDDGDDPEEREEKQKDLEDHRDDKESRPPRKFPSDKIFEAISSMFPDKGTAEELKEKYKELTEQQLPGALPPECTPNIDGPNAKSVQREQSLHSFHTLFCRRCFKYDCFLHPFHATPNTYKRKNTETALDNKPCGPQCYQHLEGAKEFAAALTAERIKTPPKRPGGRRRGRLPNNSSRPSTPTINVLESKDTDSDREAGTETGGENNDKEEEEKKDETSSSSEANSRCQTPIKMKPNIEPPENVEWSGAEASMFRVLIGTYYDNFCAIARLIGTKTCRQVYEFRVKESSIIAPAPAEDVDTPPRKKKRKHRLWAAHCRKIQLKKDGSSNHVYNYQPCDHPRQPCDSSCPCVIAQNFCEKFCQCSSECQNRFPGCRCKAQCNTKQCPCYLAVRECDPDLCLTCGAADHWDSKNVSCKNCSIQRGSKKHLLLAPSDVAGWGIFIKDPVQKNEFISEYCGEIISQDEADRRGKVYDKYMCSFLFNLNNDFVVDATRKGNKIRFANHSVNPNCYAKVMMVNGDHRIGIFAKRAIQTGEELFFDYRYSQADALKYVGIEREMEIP
Chain of wild type PRC2 (wtPRC2) complex (Q15022 whole entry partner): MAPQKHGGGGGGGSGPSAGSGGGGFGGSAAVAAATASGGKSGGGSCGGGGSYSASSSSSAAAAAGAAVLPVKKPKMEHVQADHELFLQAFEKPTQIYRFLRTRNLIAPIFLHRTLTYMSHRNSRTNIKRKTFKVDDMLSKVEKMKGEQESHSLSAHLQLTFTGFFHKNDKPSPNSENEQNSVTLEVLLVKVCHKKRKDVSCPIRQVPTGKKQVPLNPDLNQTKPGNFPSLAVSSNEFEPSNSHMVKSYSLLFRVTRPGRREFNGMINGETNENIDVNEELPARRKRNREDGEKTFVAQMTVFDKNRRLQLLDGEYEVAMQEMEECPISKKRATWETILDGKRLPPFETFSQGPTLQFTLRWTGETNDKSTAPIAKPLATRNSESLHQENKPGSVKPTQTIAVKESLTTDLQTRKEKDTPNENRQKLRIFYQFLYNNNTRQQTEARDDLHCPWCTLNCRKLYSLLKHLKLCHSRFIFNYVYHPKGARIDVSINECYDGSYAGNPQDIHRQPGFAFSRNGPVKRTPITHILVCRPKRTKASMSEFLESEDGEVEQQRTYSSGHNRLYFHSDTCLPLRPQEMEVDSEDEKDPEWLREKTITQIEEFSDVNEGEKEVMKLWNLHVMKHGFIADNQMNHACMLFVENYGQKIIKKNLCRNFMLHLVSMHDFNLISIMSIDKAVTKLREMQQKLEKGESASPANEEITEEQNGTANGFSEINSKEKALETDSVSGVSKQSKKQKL

Row | SMILES | IC50 [1] | IC50 (EED (1-441)-His protein)
1 | Cc1cc(-c2cnc(NCc3c(F)ccc4c3CCO4)n3cnnc23)ccn1 [Example 116, N-((5-fluoro-2,3-dihydrobenzofuran-4-yl)methyl)-8-(2-methylpyridin-4-yl)-[1,2,4]triazolo[4,3-c]pyrimidin-5-amine] | 0.0076 µM | 0.0047 µM
2 | O=C1OCCN1c1ccc(-c2cnc(NCc3cccc4c3CCO4)n3cnnc23)cn1 [Example 117, 3-(5-(5-(((2,3-dihydrobenzofuran-4-yl)methyl)amino)-[1,2,4]triazolo[4,3-c]pyrimidin-8-yl)pyridin-2-yl)oxazolidin-2-one] | 0.0294 µM | 0.0235 µM
3 | Cc1ccncc1-c1cnc(NCc2c(F)ccc3c2CCO3)n2cnnc12 [Example 118, N-((5-fluoro-2,3-dihydrobenzofuran-4-yl)methyl)-8-(4-methylpyridin-3-yl)-[1,2,4]triazolo[4,3-c]pyrimidin-5-amine] | 0.0182 µM | 0.0101 µM
4 | Fc1ccc2c(c1CNc1ncc(-c3ccc(C4CC4)nc3)c3nncn13)CCO2 [Example 119, 8-(6-cyclopropylpyridin-3-yl)-N-((5-fluoro-2,3-dihydrobenzofuran-4-yl)methyl)-[1,2,4]triazolo[4,3-c]pyrimidin-5-amine] | 0.0066 µM | 0.004 µM
5 | Fc1ccc2c(c1CNc1ncc(-c3ccnc(N4CCOCC4)c3)c3nncn13)CCO2 [Example 120, N-((5-fluoro-2,3-dihydrobenzofuran-4-yl)methyl)-8-(2-morpholinopyridin-4-yl)-[1,2,4]triazolo[4,3-c]pyrimidin-5-amine] | 0.0256 µM | 0.0156 µM
6 | N#Cc1ccccc1-c1cnc(NCc2c(F)ccc3c2CCO3)n2cnnc12 [Example 121, 2-(5-(((5-fluoro-2,3-dihydrobenzofuran-4-yl)methyl)amino)-[1,2,4]triazolo[4,3-c]pyrimidin-8-yl)benzonitrile] | 0.0221 µM | 0.0134 µM
7 | NC(=O)c1ccccc1-c1cnc(NCc2c(F)ccc3c2CCO3)n2cnnc12 [Example 122, 2-(5-(((5-fluoro-2,3-dihydrobenzofuran-4-yl)methyl)amino)-[1,2,4]triazolo[4,3-c]pyrimidin-8-yl)benzamide] | 0.0437 µM | 0.0192 µM
8 | Cc1ncccc1-c1cnc(NCc2cccc3c2CCO3)n2cnnc12 [Example 123, N-((2,3-dihydrobenzofuran-4-yl)methyl)-8-(2-methylpyridin-3-yl)-[1,2,4]triazolo[4,3-c]pyrimidin-5-amine] | 0.0234 µM | 0.0123 µM
9 | Fc1ccc2c(c1CNc1ncc(-c3cnccc3Cl)c3nncn13)CCO2 [Example 124, 8-(4-chloropyridin-3-yl)-N-((5-fluoro-2,3-dihydrobenzofuran-4-yl)methyl)-[1,2,4]triazolo[4,3-c]pyrimidin-5-amine] | 0.0154 µM | 0.01 µM
10 | O=C1CNCCN1c1ccc(-c2cnc(NCc3cccc4c3CCO4)n3cnnc23)cn1 [Example 125, 1-(5-(5-(((2,3-dihydrobenzofuran-4-yl)methyl)amino)-[1,2,4]triazolo[4,3-c]pyrimidin-8-yl)pyridin-2-yl)piperazin-2-one] | 0.0234 µM | 0.0085 µM
11 | OC1CN(c2ccc(-c3cnc(NCc4cccc5c4CCO5)n4cnnc34)cn2)C1 [Example 126, 1-(5-(5-(((2,3-dihydrobenzofuran-4-yl)methyl)amino)-[1,2,4]triazolo[4,3-c]pyrimidin-8-yl)pyridin-2-yl)azetidin-3-ol] | 0.0172 µM | 0.0129 µM
12 | Cc1cc(S(C)(=O)=O)ncc1-c1cnc(NCc2c(F)ccc3c2CCO3)n2cnnc12 [Example 127, N-((5-fluoro-2,3-dihydrobenzofuran-4-yl)methyl)-8-(4-methyl-6-(methylsulfonyl)pyridin-3-yl)-[1,2,4]triazolo[4,3-c]pyrimidin-5-amine] | 0.0088 µM | 0.0026 µM
13 | Cc1cc(S(C)(=O)=O)ccc1-c1cnc(NCc2c(F)ccc3c2CCO3)n2cnnc12 [Example 128, N-((5-fluoro-2,3-dihydrobenzofuran-4-yl)methyl)-8-(2-methyl-4-(methylsulfonyl)phenyl)-[1,2,4]triazolo[4,3-c]pyrimidin-5-amine] | 0.0165 µM | 0.0086 µM

Continued, values first:

Row | IC50 [1] | IC50 (EED (1-441)-His protein) | SMILES
14 | 0.0084 µM | 0.0039 µM | O=C(c1ccc(-c2cnc(NCc3c(F)ccc4c3CCO4)n3cnnc23)cn1)N1CCCC1 [Example 129, (5-(5-(((5-fluoro-2,3-dihydrobenzofuran-4-yl)methyl)amino)-[1,2,4]triazolo[4,3-c]pyrimidin-8-yl)pyridin-2-yl)(pyrrolidin-1-yl)methanone]
15 | 0.0137 µM | 0.005 µM | Cc1cc(C(=O)N2CCCC2)ncc1-c1cnc(NCc2c(F)ccc3c2CCO3)n2cnnc12 [Example 130, (5-(5-(((5-fluoro-2,3-dihydrobenzofuran-4-yl)methyl)amino)-[1,2,4]triazolo[4,3-c]pyrimidin-8-yl)-4-methylpyridin-2-yl)(pyrrolidin-1-yl)methanone]
16 | 0.0106 µM | 0.004 µM | Cc1cc(C(=O)N(C)C)ncc1-c1cnc(NCc2c(F)ccc3c2CCO3)n2cnnc12 [Example 131, 5-(5-(((5-fluoro-2,3-dihydrobenzofuran-4-yl)methyl)amino)-[1,2,4]triazolo[4,3-c]pyrimidin-8-yl)-N,N,4-trimethylpicolinamide]
17 | 0.0102 µM | 0.0062 µM | Cc1nn(C)c(C)c1-c1cnc(NCc2c(F)ccc3c2CCO3)n2cnnc12 [Example 132, N-((5-fluoro-2,3-dihydrobenzofuran-4-yl)methyl)-8-(1,3,5-trimethyl-1H-pyrazol-4-yl)-[1,2,4]triazolo[4,3-c]pyrimidin-5-amine]
18 | 0.0223 µM | 0.0087 µM | O=C1CN(Cc2ccc(-c3cnc(NCc4cccc5c4CCO5)n4cnnc34)cn2)CCN1 [Example 133, 4-((5-(5-(((2,3-dihydrobenzofuran-4-yl)methyl)amino)-[1,2,4]triazolo[4,3-c]pyrimidin-8-yl)pyridin-2-yl)methyl)piperazin-2-one]
19 | 0.0305 µM | 0.0173 µM | O=CN1CCN(c2ccc(-c3cnc(NCc4cccc5c4CCO5)n4cnnc34)cn2)CC1 [Example 134, 4-(5-(5-(((2,3-dihydrobenzofuran-4-yl)methyl)amino)-[1,2,4]triazolo[4,3-c]pyrimidin-8-yl)pyridin-2-yl)piperazine-1-carbaldehyde]
20 | 0.0112 µM | 0.0057 µM | CN(C)C(=O)CCc1ccc(-c2cnc(NCc3cccc4c3CCO4)n3cnnc23)cn1 [Example 135, 3-(5-(5-(((2,3-dihydrobenzofuran-4-yl)methyl)amino)-[1,2,4]triazolo[4,3-c]pyrimidin-8-yl)pyridin-2-yl)-N,N-dimethylpropanamide]
21 | 0.0418 µM | 0.0159 µM | Fc1ccc2c(c1CNc1ncc(-c3cnccc3C(F)(F)F)c3nncn13)CCO2 [Example 136, N-((5-fluoro-2,3-dihydrobenzofuran-4-yl)methyl)-8-(4-(trifluoromethyl)pyridin-3-yl)-[1,2,4]triazolo[4,3-c]pyrimidin-5-amine]
22 | 0.0296 µM | 0.022 µM | COCc1cc(-c2cnc(NCc3cccc4c3CCO4)n3cnnc23)cnc1C [Example 137, N-((2,3-dihydrobenzofuran-4-yl)methyl)-8-(5-(methoxymethyl)-6-methylpyridin-3-yl)-[1,2,4]triazolo[4,3-c]pyrimidin-5-amine]
23 | 0.0084 µM | 0.0019 µM | COc1cc(Cl)c(-c2cnc(NCc3c(F)ccc4c3CCO4)n3cnnc23)cn1 [Example 138, 8-(4-chloro-6-methoxypyridin-3-yl)-N-((5-fluoro-2,3-dihydrobenzofuran-4-yl)methyl)-[1,2,4]triazolo[4,3-c]pyrimidin-5-amine]
24 | 0.006 µM | 0.0017 µM | Cc1nc(S(C)(=O)=O)ccc1-c1cnc(NCc2c(F)ccc3c2CCO3)n2cnnc12 [Example 139, N-((5-fluoro-2,3-dihydrobenzofuran-4-yl)methyl)-8-(2-methyl-6-(methylsulfonyl)pyridin-3-yl)-[1,2,4]triazolo[4,3-c]pyrimidin-5-amine]
25 | 0.0551 µM | 0.0127 µM | CN(C)C(=O)c1ccc(-c2cnc(NCc3c(F)ccc4c3CCO4)n3cnnc23)cn1 [Example 140, 5-(5-(((5-fluoro-2,3-dihydrobenzofuran-4-yl)methyl)amino)-[1,2,4]triazolo[4,3-c]pyrimidin-8-yl)-N,N-dimethylpicolinamide]
26 | 0.042 µM | 0.0171 µM | COc1ncccc1-c1cnc(NCc2c(F)ccc3c2CCO3)n2cnnc12 [Example 141, N-((5-fluoro-2,3-dihydrobenzofuran-4-yl)methyl)-8-(2-methoxypyridin-3-yl)-[1,2,4]triazolo[4,3-c]pyrimidin-5-amine]
27 | 0.0051 µM | 0.0024 µM | COc1ccc(-c2cnc(NCc3c(F)ccc4c3CCO4)n3cnnc23)cn1 [Example 142, N-((5-fluoro-2,3-dihydrobenzofuran-4-yl)methyl)-8-(6-methoxypyridin-3-yl)-[1,2,4]triazolo[4,3-c]pyrimidin-5-amine]
28 | 0.0315 µM | 0.0181 µM | CCn1nccc1-c1cnc(NCc2c(F)ccc3c2CCO3)n2cnnc12 [Example 143, 8-(1-ethyl-1H-pyrazol-5-yl)-N-((5-fluoro-2,3-dihydrobenzofuran-4-yl)methyl)-[1,2,4]triazolo[4,3-c]pyrimidin-5-amine]
29 | 0.0178 µM | 0.0063 µM | CC(C)n1nccc1-c1cnc(NCc2c(F)ccc3c2CCO3)n2cnnc12 [Example 144, N-((5-fluoro-2,3-dihydrobenzofuran-4-yl)methyl)-8-(1-isopropyl-1H-pyrazol-5-yl)-[1,2,4]triazolo[4,3-c]pyrimidin-5-amine]
30 | 0.0118 µM | 0.0024 µM | COc1cc(-c2cnc(NCc3c(F)ccc4c3CCO4)n3cnnc23)ccn1 [Example 145, N-((5-fluoro-2,3-dihydrobenzofuran-4-yl)methyl)-8-(2-methoxypyridin-4-yl)-[1,2,4]triazolo[4,3-c]pyrimidin-5-amine]

Source: patent US9580437B2, “Triazolopyrimidine compounds and uses thereof” (Novartis AG, priority 2014, dated 2017)
